Entries after “also recorded” stand apart in the source; their conditions may differ. Like-named read-outs stand apart in the source and are kept apart here.
Legend:
T. gondii tachyzoites = assay: In vitro inhibition of T. gondii tachyzoites (RH-YFP fluorescence / [3H]-uracil incorporation); type: cell-based; conditions: for IC90 / IC50: Toxoplasma gondii; for activity against T. gondii tachyzoites, in words: only MIC50≦1 μM considered active
Procedure: (§1) Determination of the anti-apicomplexan activity of Compounds of Formula I may be determined by one skilled in the art. Parasite proliferation was monitored by using stably transfected type I RH-YFP parasites, which constitutively express Yellow Florescent Protein. Proliferation also was tested using a [^3H]-Uracil incorporation assay, as Uracil is incorporated into nucleic acids of T. gondii tachyzoites, but not mammalian cells, as they divide. Complimentary challenge assays ensured that the observed fluorescence data was due to parasite inhibition and not to quenched fluorescence. Pyrimethamine and sulfadiazine were used as positive controls, and DMSO at a concentration of 0.1% was used as the negative control. Because T. gondii is an obligate parasite, compounds that are toxic to host cells will appear to inhibit parasite growth. Therefore, all test compounds were simultaneously evaluated for efficacy and toxicity against human cells.
Test compounds were dissolved in DMSO to make a 10 mM solution, and subsequently diluted with IMDM-C to the concentrations used in bioassay. In the in vitro experiments DMSO concentration was not greater than 0.1% unless otherwise specified. RH-YFP parasites, which stably express Yellow Florescent Protein, were used. Tachyzoites were extracted from HFF cells by double passage through a 25-gauge needle, centrifuged for 15 minutes at 1500 RPM, and resuspended in IMDM-C. Confluent monolayers of HFF cells were infected with parasites in 96-well plates (Falcon 96 Optilux Flat-bottom) with 3,500 parasites in 100 uL per well. One hour after inoculation, test compounds and control media were added for a final volume of 200 uL per well. Parasite proliferation was assessed using [^3H]-Uracil incorporation or YFP Fluorescence assay.
Human Foreskin Fibroblast (HFF) cells were maintained in confluent monolayers in Iscoves's Modified Dulbecco's Medium supplemented with 10% fetal bovine serum, 1% GlutaMAX and 1% penicillin-streptomycin-fungizone (IMDM-C). T. gondii tachyzoites were cultivated in HFF monolayers. Parasites and cells were maintained at 33° C. or 37° C. and 5% CO2. The strains of parasite used in this study include RH, RH-YFP, and Prugnaud FLUC (Type 2 parasites stably transfected with luciferase), Me49 strain, and TgGoatUS4 isolate.
25 μL of 0.1 mCi/mL*^3H]-Uracil or [^3H]-Thymidine was added to each well 24 hours before reading plates. At harvesting, contents of the wells were transferred onto a 96-well UniFilter GF/C filter plates using a Filtermate 196 cell harvester (Packard). [^3H]-Uracil and [^3H]-Thymidine incorporation was measured using a Microplate Scintillation Luminescence Counter (Packard).
72 hours after initiation of the in vitro challenge assay, parasite proliferation was assessed by reading fluorescence of YFP parasites with a Synergy H4 Hybrid Reader (BioTek) and Gen5 1.10 software, using a bottom optics positions, excitation wavelength of 514 nm, and emission wavelength of 540 nm.

HFF cells = assay: In vitro toxicity assay on host cells ([3H]-thymidine incorporation or WST-1); type: cell-based, Human; conditions: for Toxicity: HFF cells
Procedure: as §1
HFF cells were grown to 30% confluence in 96-well plates.
Inhibitory compounds and control media were added to wells in concentrations equal to those being tested in challenge assays. After 72 hours, [^3H]-Thymidine incorporation assay was conducted to assess cell growth. Alternatively, toxicity was assessed using WST-1 cell proliferation reagent (Roche). Confluent HFF cells were treated with inhibitory and control compounds. On the final day of experiment, 10 uL of WST-1 reagent was added to each well. Plates were incubated for 1 hour in the dark at 37° C., and absorbance was measured using Synergy H4 Hybrid Reader (BioTek) fluorometer at […].

[1] = Hydrolytic stability of acylated derivatives (data not shown); type: physicochemical
Procedure: A cursory study of the effect of capping the phenol of 4 via acylation was undertaken. The acylated derivatives 7 were prepared and tested. […] The intrinsic activity of intact 7a cannot yet be ruled out, and this interesting phenomenon is currently under study.

[2] = In vivo oral toxicity in mice; conditions: for toxic effects when dosed orally: gavage daily for nine days, 100 mg/kg; for signs of toxicity in mice, in words: mouse, in vivo
Procedure: Selected compounds were evaluated for in vivo efficacy against T. gondii and P. falciparum. To asses toxic effects when administered orally, selected compounds were administered orally to mice daily for nine days at a dose of 100 mg/kg. At the end of the ten days, the animals were evaluated for toxic effects.
Todetermine whether 14a or 14b exerted toxic effects when dosed orally, each compound was administered by gavage to mice daily for nine days at a dose of 100 mg/kg.
HLA B07 transgenic mice were produced at Pharmexa-Epimmune (San Diego, Calif., USA) and bred at the University of Chicago. All studies were conducted with Institutional Animal Care and Use Committee at the USDA, the University of Chicago, and the University of Strathclyde.

[3] = Uninfected mice dosed with compound alone (groups of the oocyst study); type: in vivo; conditions: for Day of Death: challenge None; for symptoms of uninfected mice dosed with compound alone: 100 or 25 mg/kg oral gavage
Procedure: Thus, compounds 14a and 14b were tested for efficacy in a mouse model of T. gondii oocyst infection. The oocyst form of the parasite is excreted by cats and is often the form by which people and other animals become infected. This oocyst infection in mice is very virulent, and fatal. Mice were infected by oral gavage with ME49 or TgGoatUS4 oocysts. Mice were treated with either a high dose (100 mg/kg) or low dose (25 mg/kg) of 14a or 14b 1 mL suspension via oral gavage, or were not treated. […] Treatment with 14a and 14b increased survival by 1 day (Table 6, FIGS. 8 and 9).
Five groups of B7 female mice weighing approximately 25 g were used. Group 1 received only 14a (100 mg/kg, 2.5 mg/mL, 1.0 mL) by oral gavage. Group 2 received only 14a (25 mg/kg, 0.5 mg/mL, 1.0 mL) by oral gavage. Group 3 received 14a (100 mg/kg, 2.5 mg/mL, 1.0 mL) and 100 ME49 oocysts by oral gavage. Group 4 received 14a (25 mg/kg, 0.5 mg/mL, 1.0 mL) and 100 ME49 oocysts by oral gavage. Group 5 received only 100 ME49 oocysts by oral gavage.
Five groups of B7 female mice weighing approximately 25 g were used. Group 1 received only 14b (100 mg/kg, 2.5 mg/mL, 1.0 mL) by oral gavage. Group 2 received only 14b (25 mg/kg, 0.5 mg/mL, 1.0 mL) by oral gavage. Group 3 received 14b (100 mg/kg, 2.5 mg/mL, 1.0 mL) and 100 TgGoatUS4 oocysts by oral gavage. Group 4 received 14a (25 mg/kg, 0.5 mg/mL, 1.0 mL) and 100 TgGoatUS4 oocysts by oral gavage. Group 5 received only 100 TgGoatUS4 oocysts by oral gavage.

[4] = serial dilutions, additional test concentrations, RH-YFP, read-out: IC90
[5] = serial dilutions, additional test concentrations, RH-YFP, read-out: IC50

CC(C)(C)c1cccc(NC(=O)c2cc(Cl)ccc2O)c1 [Compound 3i, N-(3-tert-butylphenyl)-5-chloro-2-hydroxybenzamide]
IC90 (T. gondii tachyzoites; [4]): 0.016 to 0.031 µM | activity against T. gondii tachyzoites, in words (T. gondii tachyzoites): active at low nanomolar concentrations | toxicity to human host cells, in words (HFF cells): not toxic to human host cells | Toxicity (HFF cells): >1000 nM

O=C(Nc1cc(C(F)(F)F)cc(C(F)(F)F)c1)c1cc(Cl)ccc1O [Compound 3j]
IC50 (T. gondii tachyzoites; [5]): 0.016 to 0.031 µM | IC90 (T. gondii tachyzoites; [4]): 0.125 to 0.25 µM | activity against T. gondii tachyzoites, in words (T. gondii tachyzoites): active at low nanomolar concentrations; also recorded: promising activity | toxicity to human host cells, in words (HFF cells): not toxic to human host cells | Toxicity (HFF cells): >1000 nM

O=C(Oc1ccc(Cl)cc1C(=O)Nc1ccc([N+](=O)[O-])cc1Cl)c1ccccc1 [Compound 7a, 4-chloro-2-((2-chloro-4-nitrophenyl)carbamoyl)phenyl benzoate]
IC50 (T. gondii tachyzoites; [5]): 0.061 to 0.125 µM | IC90 (T. gondii tachyzoites; [4]): 0.125 to 0.25 µM | activity against T. gondii tachyzoites, in words (T. gondii tachyzoites): active at low nanomolar concentrations; also recorded: apparent increase in potency over 4 | toxicity to human host cells, in words (HFF cells): not toxic to human host cells | Toxicity (HFF cells): >1000 nM | stability against hydrolysis [1]: hydrolytically labile under certain conditions

CN(CC(=O)NN)C(=O)Oc1ccc(Cl)cc1C(=O)Nc1ccc([N+](=O)[O-])cc1Cl.Cl [Compound 14a, 4-chloro-2-((2-chloro-4-nitrophenyl)carbamoyl)phenyl (2-hydrazinyl-2-oxoethyl)(methyl)carbamate hydrochloride]
IC50 (T. gondii tachyzoites): 0.016 to 0.031 µM | IC90 (T. gondii tachyzoites): 0.125 to 0.25 µM | activity against T. gondii tachyzoites, in words (T. gondii tachyzoites): active at low nanomolar concentrations | toxic effects when dosed orally [2]: all mice were alive and appeared healthy | signs of toxicity in mice, in words [2]: no signs of toxicity | toxicity to human host cells, in words (HFF cells): not toxic to human host cells | Toxicity (HFF cells): >1000 nM | Day of Death ([3]; 25 mg/kg oral gavage): None | Day of Death ([3]; 100 mg/kg oral gavage): None | symptoms of uninfected mice dosed with compound alone [3]: remained asymptomatic

CN(CC(=O)NN)C(=O)Oc1ccc(Cl)cc1C(=O)Nc1ccc(C(F)(F)F)cc1C(F)(F)F.Cl [Compound 14b, 2-((2,4-bis(trifluoromethyl)phenyl)carbamoyl)-4-chlorophenyl (2-hydrazinyl-2-oxoethyl)(methyl)carbamate hydrochloride]
IC50 (T. gondii tachyzoites): 0.125 to 0.25 µM | IC90 (T. gondii tachyzoites): 0.125 to 0.25 µM | activity against T. gondii tachyzoites, in words (T. gondii tachyzoites): active at low nanomolar concentrations | toxic effects when dosed orally [2]: all mice were alive and appeared healthy | signs of toxicity in mice, in words [2]: no signs of toxicity | toxicity to human host cells, in words (HFF cells): not toxic to human host cells | Toxicity (HFF cells): >1000 nM | Day of Death ([3]; 25 mg/kg oral gavage): None | Day of Death ([3]; 100 mg/kg oral gavage): None | symptoms of uninfected mice dosed with compound alone [3]: remained asymptomatic

— patent publication US20130324555A1, “Method of use of pharmaceutical formulations for the treatment of apicomplexan diseases in animals” (priority 2012, published 2013)
